Among the data in patent publication US7253192B2, “Phenyl derivatives comprising an acetylene group” (Hoffmann-La Roche Inc., priority 2004, dated 2007) are melting point values, retold here.

On to `Cc1cc(SCC#Cc2ccc(C(F)(F)F)cc2)ccc1OCC(=O)O` [Example 5, {2-Methyl-4-[3-(4-trifluoromethyl-phenyl)-prop-2-ynylsulfanyl]-phenoxy}-acetic acid], for which the melting point (in general, the temperature of the solid-liquid transition) was in the range of 130 to 131 °C.

Regarding `Cc1cc(SCC#Cc2cccc(C(F)(F)F)c2)ccc1OCC(=O)O` [Example 6, {2-Methyl-4-[3-(3-trifluoromethyl-phenyl)-prop-2-ynylsulfanyl]-phenoxy}-acetic acid], the melting point was in the range of 81 to 82 °C.

For the compound `Cc1cc(SCC#Cc2ccccc2C(F)(F)F)ccc1OCC(=O)O` [Example 7, {2-Methyl-4-[3-(2-trifluoromethyl-phenyl)-prop-2-ynylsulfanyl]-phenoxy}-acetic acid], the melting point was 95 to 97 °C.

The compound `Cc1cc(SCC#Cc2ccc(Cl)cc2)ccc1OCC(=O)O` [Example 8, {4-[3-(4-Chloro-phenyl)-prop-2-ynylsulfanyl]-2-methyl-phenoxy}-acetic acid] showed a melting point of 106 to 108 °C.

As for `COc1ccc(C#CCSc2ccc(OCC(=O)O)c(C)c2)cc1` [Example 9, {4-[3-(4-Methoxy-phenyl)-prop-2-ynylsulfanyl]-2-methyl-phenoxy}-acetic acid], the melting point fell in the range of 143 to 144 °C.

In turn, `Cc1cc(SCC#Cc2ccccc2)ccc1OCC(=O)O` [Example 10, [2-Methyl-4-(3-phenyl-prop-2-ynylsulfanyl)-phenoxy]-acetic acid] displayed a melting point of 90 to 92 °C.

`Cc1cc(SCCC#Cc2ccc(C(F)(F)F)cc2)ccc1OCC(=O)O` [Example 12, {2-Methyl-4-[4-(4-trifluoromethyl-phenyl)-but-3-ynylsulfanyl]-phenoxy}-acetic acid] came in with a melting point of 129 to 130 °C.

In the case of `Cc1cc(OCCCC#Cc2ccc(C(F)(F)F)cc2)ccc1OC(C)(C)C(=O)O` [Example 14, 2-Methyl-2-{2-methyl-4-[5-(4-trifluoromethyl-phenyl)-pent-4-ynyloxy]-phenoxy}-propionic acid], the melting point was 114 to 115 °C (dec.).

In the case of `Cc1cc(OCCCC#Cc2ccc(Cl)cc2)ccc1OC(C)(C)C(=O)O` [Example 15, 2-{4-[5-(4-Chloro-phenyl)-pent-4-ynyloxy]-2-methyl-phenoxy}-2-methyl-propionic acid], the melting point is 119 to 120 °C (dec.).

Take `Cc1cc(OCCC#Cc2ccc(Cl)cc2)ccc1OC(C)(C)C(=O)O` [Example 18, 2-{4-[4-(4-Chloro-phenyl)-but-3-ynyloxy]-2-methyl-phenoxy}-2-methyl-propionic acid]: the melting point was 68 to 69 °C (dec.).

In the case of `Cc1cc(OCCCC#Cc2ccc(OC(F)(F)F)cc2)ccc1OCC(=O)O` [Example 20, {2-Methyl-4-[5-(4-trifluoromethoxy-phenyl)-pent-4-ynyloxy]-phenoxy}-acetic acid], the melting point was in the range of 124.6 to 126.7 °C.

On to `Cc1cc(OCCCC#Cc2ccc(Cl)c(F)c2)ccc1OC(C)(C)C(=O)O` [Example 27, 2-{4-[5-(4-Chloro-3-fluoro-phenyl)-pent-4-ynyloxy]-2-methyl-phenoxy}-2-methyl-propionic acid], for which the melting point is 106 to 107 °C (dec.).

In the case of `Cc1cc(OCCCC#Cc2cnc(C(F)(F)F)nc2)ccc1OC(C)(C)C(=O)O` [Example 28, 2-Methyl-2-{2-methyl-4-[5-(2-trifluoromethyl-pyrimidin-5-yl)-pent-4-ynyloxy]-phenoxy}-propionic acid], the melting point was 95 to 97 °C (dec.).

With `CC(C)(Oc1ccc(CNC(=O)CCC#Cc2ccc(OC(F)(F)F)cc2)cc1)C(=O)O` [Example 29, 2-Methyl-2-(4-{[5-(4-trifluoromethoxy-phenyl)-pent-4-ynoylamino]-methyl}-phenoxy)-propionic acid], the melting point was 127 to 128 °C (dec.).

`CC(C)(Oc1ccc(OCCCC#Cc2ccc(OC(F)(F)F)cc2)c(F)c1)C(=O)O` [Example 32, 2-{3-Fluoro-4-[5-(4-trifluoromethoxy-phenyl)-pent-4-ynyloxy]-phenoxy}-2-methyl-propionic acid]: the melting point fell in the range of 65.5 to 68.5 °C.
